Broadly, the inhibition is the change of the read-out against control, counted positive when it falls. What is called IC50 is the concentration that gives 50% inhibition. Usually CC50 stands for the concentration giving 50% cytotoxicity. What is called LogP is a log measure of how a compound divides between an organic and an aqueous phase.

One data set addresses SARS-CoV-2 M^pro (Severe acute respiratory syndrome coronavirus 2, UniProt P0DTD1). Kind of data set: biochemical. The following applies: for inhibition at 10 µM: read-out: Enzymatic Inhibition Rate (%), primary screening, 10 μM, incubation for 5 min.
A short description of data set [1]: MTT cytotoxicity assay, HFF-1 cells. It is filed as cell-based. The following applies: human. The procedure:
(§1) The human HFF-1 and monkey Vero E6 cells were provided by Cell Bank in Shanghai, Chinese Academy of Sciences. HFF-1 cells were cultured in DMEM complete medium containing 15% FBS, 100 U/mL penicillin, and 100 μg/mL of streptomycin, while Vero E6 cells were maintained in DMEM complete medium containing 10% FBS. They were maintained at 37 °C in a humidified atmosphere with 5% CO2 (V/V).
(§2) The in vitro cytotoxicity of compounds was determined by the standard MTT assay according to our reported procedure. Briefly, well-cultured cells were seeded in 96-well plates at a density of 5 × 10^3 cells per well. After being cultured overnight in a 37 °C humidified incubator (5% CO2, V/V), cells were incubated with tested compounds for 48 h. Then, cells in each well were treated with MTT in PBS (5 mg/mL) for 4 h at 37 °C, and formazan crystals in viable cells were dissolved by dimethyl sulfoxide (150 μL) at ambient temperature. The absorbance of solubilized formazan was measured by the Synergy multimode reader (BioTek, Winooski, VT, American) at the wavelength of 490 nm.

Data set [2] can be described thus: MTT cytotoxicity assay, Vero E6 cells. The data set is classed as cell-based. The following applies: African green monkey. The procedure: as §1, §2
Data set [3] concerns SARS-CoV-2 N proteins in Vero E6 cells. As to the kind of experiment: Immunofluorescence assay for viral N proteins in infected Vero E6 cells. It is filed as cell-based. The conditions noted are these: 10 μM, 48 h.
Protocol: Human Vero E6 cells were infected by live SARS-CoV-2 at an MOI value of 0.01. […] Then, cells in each group were collected and the immunofluorescence assay was used to detect the expression of viral N protein, and the result was analyzed by high-content screening.
In a further data set the test system is adenovirus. The conditions noted are these: concentrations from 0.0156 μM to 1 μM; cited from earlier work.
The conditions of data set [4]: experimental value; cited from earlier work.

As to `COc1cc(C(CC=C(C)C)OCCC(C)C)c(OC)c2c1C(=O)C=CC2=O` (stereo not shown) [Compound 4, 6-(1-(Isopentyloxy)-4-methylpent-3-en-1-yl)-5,8-dimethoxy Naphthalene-1,4-dione], the inhibition at 10 µM on SARS-CoV-2 M^pro was 10.6%. As to `COc1cc(C(CC=C(C)C)OCCC(C)C)c(OC)c2c1/C(=N/O)C=C/C2=N\O` (stereo not shown) [Compound 5, (1E,4E)-6-(1-(Isopentyloxy)-4-methylpent-3-en-1-yl)-5,8-dimethoxynaphthal-ene-1,4-dione Dioxime], the inhibition at 10 µM at SARS-CoV-2 M^pro is roughly 36%.

With `COc1cc(C(CC=C(C)C)OCCC(C)C)c(OC)c2c1/C(=N/OC(=O)c1ccccc1)C=C/C2=N\OC(=O)c1ccccc1` (stereo not shown) [Compound 6, (1E,4E)-6-(1-(Isopentyloxy)-4-methylpent-3-en-1-yl)-5,8-dimethoxynaphthalene-1,4-dione O,O-Dibenzoyl Dioxime], the “Enzymatic Inhibition Rate (%)” value on SARS-CoV-2 M^pro (primary screening, 10 μM, incubation for 5 min) was “complete loss of activity”. Also, on SARS-CoV-2 M^pro, the inhibition at 10 µM was -6.9%. In the case of `COc1cc(C(CC=C(C)C)OCCCCC(C)O)c(OC)c2c1/C(=N/O)C=C/C2=N\O` (stereo not shown) [Compound 9, (1E,4E)-6-(1-((5-Hydroxyhexyl)oxy)-4-methylpent-3-en-1-yl)-5,8-dimethoxy Naphthalene-1,4-dione Dioxime], the inhibition at 10 µM on SARS-CoV-2 M^pro worked out at 10.7%.

Consider `COc1cc(C(CC=C(C)C)OCCCCCCCCO)c(OC)c2c1/C(=N/O)C=C/C2=N\O` (stereo not shown) [Compound 10, (1E,4E)-6-(1-((8-Hydroxyoctyl)oxy)-4-methylpent-3-en-1-yl)-5,8-dimethoxy Naphthalene-1,4-dione Dioxime], for which the inhibition at 10 µM at SARS-CoV-2 M^pro turned out to be 11.3%.

In the case of `COc1cc(C(CC=C(C)C)OC(=O)C=Cc2ccccc2)c(OC)c2c1/C(=N/O)C=C/C2=N\O` (stereo not shown) [Compound 12, 1-((5E,8E)-5,8-bis(Hydroxyimino)-1,4-dimethoxy-5,8-dihydronaphthalen-2-yl)-4-methylpent-3-en-1-yl Cinnamate], at SARS-CoV-2 M^pro, the inhibition at 10 µM was found to be 28%.

`COc1cc([C@@H](CC=C(C)C)OCCC(C)C)c(OC)c2c1/C(=N/O)C=C/C2=N\O` [Compound 14, (1E,4E)-6-((R)-1-(Isopentyloxy)-4-methylpent-3-en-1-yl)-5,8-dimethoxy Naphthalene-1,4-dione Dioxime] came in with a concentration for half-maximal inhibition (IC50) at SARS-CoV-2 M^pro of 22.8 ± 4.61 µM.

As for `COc1cc([C@H](CC=C(C)C)OCCC(C)C)c(OC)c2c1/C(=N/O)C=C/C2=N\O` [Compound 15, (1E,4E)-6-((S)-1-(Isopentyloxy)-4-methylpent-3-en-1-yl)-5,8-dimethoxy Naphthalene-1,4-dione Dioxime], the IC50 at SARS-CoV-2 M^pro was 12.5 ± 3.59 µM. Turning to `CC(C)=CC[C@@H](O)C1=CC(=O)c2c(O)ccc(O)c2C1=O` [Shikonin], the inhibition at 10 µM on SARS-CoV-2 M^pro was 51.4%. Also, the CC50 at 48 h in data set [1] was 1.31 ± 0.09 µM; in data set [2], 1.48 ± 0.06 µM. The “blue fluorescence (DAPI) from the live cell nucleus” value in data set [3] is reported as “almost invisible”. Moreover, the “expression of viral N proteins versus untreated cells” value in data set [3] (MOI 0.01) is given as “significantly decreased expression of viral N proteins”. The “inhibitory effects against adenovirus” value in the data set on adenovirus is on record as “showed inhibitory effects against adenovirus”. In addition, the LogP in data set [4] is 1.08.

The values are drawn from PMC11945236 (Molecules, 2025).
